# In paper PMC11988817, “Prediction and Prioritisation of Novel Anthelmintic Candidates from Public Databases Using Deep Learning and Available Bioactivity Data Sets” (International Journal of Molecular Sciences, 2025):
# Read-outs that look alike come from different tables or passages of the source.
# Tests used:
# [1] = system: exsheathed third-stage larvae (xL3s) of H. contortus; assay: xL3 larval motility dose-response assay; parameters: species or system Haemonchus contortus; conditions: for inhibition at 50 µM / inhibition at up to 50 µM: read-out: Larval motility maximal inhibition (MI; MMI) (converted); for IC50: read-out: Larval Motility IC50; for inhibition of xL3 motility (in words): dose-response up to 50 µM; for inhibition at 50 µM / inhibition at up to 50 µM / Larval motility maximal inhibition (MI; MMI): at 50 µM
# Procedure: (§1) The prioritised compounds were purchased from MolPort and evaluated for their activity by estimating their IC50 values and MMIs against xL3s of H. contortus (Haecon-5 strain) using an established method. In brief, xL3s were dispensed in 96-well plates (cat. no. 3596; Corning, Corning, NY, USA) at a density of 300 xL3s per well with individual, serially diluted compounds (9-points; 2-fold serial dilution; 50 µM to […]), in a final volume of 100 µL of LB* (= sterile lysogenic broth [LB] supplemented with 100 IU/mL penicillin, 100 µg/mL streptomycin and 0.25 µg/mL amphotericin B [Fungizone®, Thermo Fisher Scientific, Waltham, MA, USA]). Plates containing xL3s were incubated at 38 °C, 10% (v/v) CO2 and >90% relative humidity. Following 168 h of incubation, the compounds were tested by three independent experiments in triplicate. The xL3s motility and development to fourth-stage larvae (L4s) were measured with reference to two commercial anthelmintics, monepantel (Zolvix^TM; Elanco, Greenfield, IN, USA) and moxidectin (Cydectin®; Virbac, Carros, France). Negative control wells containing 0.25% (v/v) DMSO were present on all plates. […] Compound concentrations were log10-transformed and fitted using a variable slope four-parameter equation, constraining the highest value to 100% and employing a least squares (ordinary) fit model as implemented in GraphPad Prism software (v.10.0.1). A one-way analysis of variance (ANOVA) with a Dunnett’s multiple comparison test was used to establish statistically significant differences in larval motility and in development.
# [2] = system: exsheathed third-stage larvae (xL3s) of H. contortus; assay: abnormal larval phenotype / worm morphology assessment; parameters: species or system Haemonchus contortus; key to Abnormal Phenotype: curved (Cur); evisceration (Evi); coiled (Coi); conditions: 168 h; for Abnormal Phenotype: exhibited at 50 µM
# Procedure: as §1
# [3] = system: exsheathed third-stage larvae (xL3s) of H. contortus; assay: xL3 larval development (to L4) assay; parameters: species or system Haemonchus contortus; conditions: for IC50: Haemonchus contortus, read-out: Larval Development IC50
# Procedure: as §1
# Haemonchus contortus = conditions: cited from earlier work
# [4] = system: adult females of H. contortus; assay: adult female motility time-course assay; parameters: species or system Haemonchus contortus; conditions: 50 µM
# Procedure: (§2) Subsequently, the selected compounds evaluated for in vitro activity against larvae were further assessed for their activity against adult females and males of H. contortus using an established motility assay. In brief, the compound was dispensed in 24-well plates (cat. no. 3524; Corning) at a concentration of 50 μM in 500 μL of RPMI* (RPMI 1640 medium supplemented with 4 mM L-glutamine, 100 U/mL penicillin, 100 µg/mL streptomycin and 0.25 µg/mL amphotericin B). Two positive controls, monepantel and moxidectin, were each prepared in the same manner, and a negative control containing 0.25% (v/v) DMSO was included on all plates. Three adult females or males were added to each of the wells containing either the test compound or a control compound and then incubated at 38 °C, 10% (v/v) CO2 and >90% relative humidity for 24 h. The compounds were tested in triplicate. A video recording (30 sec) of each well was taken at 0 h, 3 h, 6 h, 12 h and 24 h during the entire incubation period to assess the reduction in worm motility—scored as 3 (‘good’), 2 (‘low’), 1 (‘very low’) or 0 (‘none’). For each test or control compound, the motility scores for each of the triplicate wells were calculated, normalised with reference to the negative control (100% motility), and recorded as a percentage. A two-way ANOVA with Dunnett’s multiple comparison test was used to establish statistically significant differences against the DMSO control in worm motility for each time point.
# [5] = HepG2 cytotoxicity (CellTiter-Glo); type: cell-based; conditions: human
# Procedure: The cytotoxicity of the prioritised compounds 3, 4 and 6 on human hepatoma (HepG2) cells was evaluated as described previously. In brief, HepG2 cells were first cultured (in an incubator at 5% (v/v) CO2, 37 °C and >90% humidity) in Dulbecco’s modified Eagle’s medium (DMEM), supplemented with 5% (v/v) foetal bovine serum (FBS). The test compounds were serially diluted (10-points; 2-fold serial dilution; top concentration of 50 μM) in DMEM plus 10% (v/v) FBS, adjusted to a DMSO concentration of 0.5% (v/v) and arrayed across a 384-well plate. Bortezomib (10 μM) was used as a positive control, and 0.5% DMSO was used as a negative control. HepG2 cells (1 × 10^3 cells per 50 μL of DMEM plus 10% FBS) were then seeded into wells of the assay plate; the plates were then incubated in 5% (v/v) CO2, 37 °C and >90% humidity for 48 h. Subsequently, cell proliferation was assessed using CellTiter-Glo (Promega, Fitchburg, WI, USA) and normalised against the negative controls and expressed as a percentage. All compounds were tested in duplicate. The half-maximal cytotoxic (CC50) values were calculated using the software Dotmatics (v.5.3) and Spotfire (v.7.11.1) employing a non-linear regression four-parameter fit analysis.
# [6] = system: adult males of H. contortus; assay: adult male motility time-course assay; parameters: species or system Haemonchus contortus; conditions: 50 µM
# Procedure: as §2
# [7] = Haemonchus contortus, 168 h, xL3s, 168 h
# [8] = Haemonchus contortus, 168 h, xL3s, 168 h of exposure, three independent assays in triplicate
SMILES,"inhibition at 50 µM [1, 7] [%]","IC50 [1, 8] [µM]",Abnormal Phenotype [2],"IC50 ([3]; xL3s, 168 h of exposure) [µM]",also measured
"N#Cc1ccc(N2CCC(O)CC2)cc1 [Compound 7, 4-(4-Hydroxypiperidin-1-yl)benzonitrile]",70,2.1 ± 3.5,nil,> 50,
CC(C)Oc1cccc(-c2cnc3c(n2)CCCC3)c1 [APDB C802],,,,,antiparasitic activity (in words) (Haemonchus contortus; tetrahydroquinoxalines): antiparasitic activity was observed
"CC12CN3CN(C1)CC(c1ccccc1)(C3)C2=O [Compound 8, (1S,5R,7S)-5-Methyl-7-phenyl-1,3-diazatricyclo[3.3.1.1³,⁷]decan-6-one]",42,0.8 ± 1.6,nil,> 50,
"COC(=O)c1ccc(-c2cc(C#N)ccn2)cc1 [Compound 1, Methyl 4-(4-cyanopyridin-2-yl)benzoate]",50,6.2 ± 0.3,curved (Cur) and Evi,> 50,Larvae with abnormal phenotype (exhibited at 50 µM) [2]: 20%; inhibition of larval development (in words) ([3]; 168 h): not inhibited
"CC(C)(CO)NCC#Cc1ccccc1 [Compound 10, 2-Methyl-2-[(3-phenylprop-2-yn-1-yl)amino]propan-1-ol]",50,0.8 ± 1.2,nil,> 50,"motility reduction, adult females, 24 h [4]: 40%"
"COc1ccc(-c2cncc(C#N)n2)cc1OC [Compound 3, 6-(3,4-Dimethoxyphenyl)pyrazine-2-carbonitrile]",54,7.9 ± 1.9,Evi,37.1,"inhibition of xL3 motility (in words) ([1]; 168 h): inhibition of H. contortus motility was only observed; CC50 at 48 h ([5]; HepG2 cells (human hepatoma)): > 40 µM; Larvae with abnormal phenotype (exhibited at 50 µM) [2]: 80%; altered worm morphology / abnormal phenotype (in words) [2]: induced an abnormal phenotype; Larval development maximal inhibition (MI) ([3]; xL3s, 168 h of exposure): 100%"
"N=C(N)c1ccc(N2CCOCC2)cc1 [Compound 2, 4-(Morpholin-4-yl)benzene-1-carboximidamide]",,1.8 ± 1.4,nil,> 50,"inhibition at up to 50 µM [1, 7]: 53%"
CC(C#N)(COc1cc(C#N)ccc1C(F)(F)F)NC(=O)c1ccc(OC(F)(F)F)cc1 (stereo not shown) [APDB C823],,,,,antiparasitic activity (in words) (Haemonchus contortus): possess antiparasitic activity
COc1ccc(-c2cnc3c(n2)CCCC3)cc1C#N [APDB C798],,,,,antiparasitic activity (in words) (Haemonchus contortus; tetrahydroquinoxalines): antiparasitic activity was observed
"O=C(CCC(F)(F)F)NCCc1cnccn1 [Compound 5, 4,4,4-Trifluoro-N-[2-(pyrazin-2-yl)ethyl]butanamide]",65,37.5 ± 2.5,nil,> 50,
"c1ccc(-c2cnc3ccccc3n2)cc1 [Compound 4, 2-Phenylquinoxaline]",,,nil,,"IC50 ([1]; Haemonchus contortus, 168 h): 5.8 ± 4.1 µM; motility reduction, adult males, 24 h [6]: 50%; CC50 at 48 h ([5]; HepG2 cells): > 40 µM; motility reduction, adult females, 24 h [4]: 40%; IC50 ([3]; 168 h): > 50 µM"
"N#Cc1ccc(OCc2cccc(F)c2)cc1 [Compound 6, 4-[(3-Fluorophenyl)methoxy]benzonitrile]",100,7.4 ± 9.4,Evi,23.6,"inhibition of xL3 motility (in words) ([1]; 168 h): inhibition of H. contortus motility was only observed; motility reduction, adult males, 6 h [6]: 50%; motility reduction, adult males, 12 h [6]: 75%; motility reduction, adult males, 24 h [6]: 100%; effect on adult male motility (in words) ([6]; within 24 h): complete immobilisation; CC50 at 48 h ([5]; HepG2 cells (human hepatoma)): > 40 µM; motility reduction, adult females, 6 h [4]: 33%; motility reduction, adult females, 12 h [4]: 50%; motility reduction, adult females, 24 h [4]: 75%; effect on adult female motility (in words) ([4]; within 24 h): significant reduction in the motility; Larvae with abnormal phenotype (exhibited at 50 µM) [2]: 100%"
"CO/N=C1\C[C@]2(C[C@@H]3C[C@@H](C/C=C(\C)C[C@@H](C)/C=C/C=C4\CO[C@@H]5[C@H](O)C(C)=C[C@@H](C(=O)O3)[C@]45O)O2)O[C@H](/C(C)=C/C(C)C)[C@H]1C [Moxidectin, (1R,4S,4'E,5'S,6R,6'S,8R,10E,13R,14E,16E,20R,21R,24S)-21,24-dihydroxy-4'-methoxyimino-5',11,13,22-tetramethyl-6'-[(E)-4-methylpent-2-en-2-yl]spiro[3,7,19-trioxatetracyclo[15.6.1.14,8.020,24]pentacosa-10,14,16,22-tetraene-6,2'-oxane]-2-one, reference compound]",,0.5,nil,45,"Larval motility maximal inhibition (MI; MMI) ([1]; xL3s, 168 h): 75%; Larval motility maximal inhibition (MI; MMI) ([1]; xL3s, 168 h, listed as moxidectin): 5%; IC50 ([1]; xL3s, 168 h of exposure, three independent assays in triplicate): 0.8 ± 0.4 µM; Larval development maximal inhibition (MI) ([3]; xL3s, 168 h of exposure): 100%"
"N#Cc1ccc(NC(=O)COCC(=O)NCC(N)=O)cc1 [Compound 9, N-(Carbamoylmethyl)-2-{[(4-cyanophenyl)carbamoyl]methoxy}acetamide]",46,4.1,nil,> 50,
"C[C@](C#N)(COc1cc(C#N)ccc1C(F)(F)F)NC(=O)c1ccc(SC(F)(F)F)cc1 [Monepantel, N-[(2S)-2-cyano-1-[5-cyano-2-(trifluoromethyl)phenoxy]propan-2-yl]-4-(trifluoromethylsulfanyl)benzamide, reference compound]",,0.2 ± 0.002,Coi,0.4,"inhibition at up to 50 µM [1, 7]: 100%; motility reduction, adult males, 6 h [6]: 67%; motility reduction, adult males, 12 h [6]: 67%; motility reduction, adult males, 24 h [6]: 100%; motility reduction, adult females, 6 h [4]: 67%; motility reduction, adult females, 12 h [4]: 67%; motility reduction, adult females, 24 h [4]: 67%; Larvae with abnormal phenotype (exhibited at 50 µM) [2]: 100%"
